Results from PMC8398847, “Isavuconazole: Thermodynamic Evaluation of Processes Sublimation, Dissolution and Partition in Pharmaceutically Relevant Media” (Molecules, 2021).

Assay: Solubility data modeling (modified Apelblat and van’t Hoff equations)
Description: The modified Apelblat model developed for nonideal solutions is one of the most frequently used models for prediction and correlation of solubility data and can be expressed as follows:(21) lnx=A+B/T/K+Cln(T/K) where x is the compound solubility in the studied solvents, which can be determined by Equation (8); T is the absolute temperature; A, B and C are three empirical constants of the equation. The A and B values represent changes in the solution behavior as a result of the nonideality of the solute solubility, whereas C reflects the connection between the melting point and enthalpy. Despite its simple mathematical expression, this model can ensure high accuracy of prediction of the solute solubility at a variety of temperature values.
The van’t Hoff equation can be used to calculate the relationship between the solubility of solute and temperature. The equation can be simplified as Equation (22). (22) lnx=A+B/(T/K) where x represents the mole fraction solubility of compound. T is the absolute temperature and A, B are the regression parameters obtained using multivariable least-square method.

xcal modified Apelblat equation (1-octanol, 293.15 K): 6.2160·10^−3
xcal van’t Hoff equation (1-octanol, 293.15 K): 6.2245·10^−3
xcal modified Apelblat equation (1-octanol, 298.15 K): 7.4880·10^−3
xcal van’t Hoff equation (1-octanol, 298.15 K): 7.4831·10^−3
xcal modified Apelblat equation (1-octanol, 303.15 K): 8.9532·10^−3
xcal van’t Hoff equation (1-octanol, 303.15 K): 8.9416·10^−3
xcal modified Apelblat equation (1-octanol, 308.15 K): 10.629·10^−3
xcal van’t Hoff equation (1-octanol, 308.15 K): 10.623·10^−3
xcal modified Apelblat equation (1-octanol, 313.15 K): 12.534·10^−3
xcal van’t Hoff equation (1-octanol, 313.15 K): 12.551·10^−3
xcal modified Apelblat equation (1-propanol, 293.15 K): 7.8833·10^−3
xcal van’t Hoff equation (1-propanol, 293.15 K): 7.8924·10^−3
xcal modified Apelblat equation (1-propanol, 298.15 K): 9.5597·10^−3
xcal van’t Hoff equation (1-propanol, 298.15 K): 9.5750·10^−3
xcal modified Apelblat equation (1-propanol, 303.15 K): 11.528·10^−3
xcal van’t Hoff equation (1-propanol, 303.15 K): 11.542·10^−3
xcal modified Apelblat equation (1-propanol, 308.15 K): 13.827·10^−3
xcal van’t Hoff equation (1-propanol, 308.15 K): 13.830·10^−3
xcal modified Apelblat equation (1-propanol, 313.15 K): 16.501·10^−3
xcal van’t Hoff equation (1-propanol, 313.15 K): 16.475·10^−3
xcal modified Apelblat equation (buffer pH 1.2, 293.15 K): 6.8301·10^−7
xcal van’t Hoff equation (buffer pH 1.2, 293.15 K): 6.8234·10^−7
xcal modified Apelblat equation (buffer pH 1.2, 298.15 K): 7.6469·10^−7
xcal van’t Hoff equation (buffer pH 1.2, 298.15 K): 7.6519·10^−7
xcal modified Apelblat equation (buffer pH 1.2, 303.15 K): 8.5388·10^−7
xcal van’t Hoff equation (buffer pH 1.2, 303.15 K): 8.5488·10^−7
xcal modified Apelblat equation (buffer pH 1.2, 308.15 K): 9.5109·10^−7
xcal van’t Hoff equation (buffer pH 1.2, 308.15 K): 9.5164·10^−7
xcal modified Apelblat equation (buffer pH 1.2, 313.15 K): 10.568·10^−7
xcal van’t Hoff equation (buffer pH 1.2, 313.15 K): 10.557·10^−7
xcal modified Apelblat equation (buffer pH 2.0, 293.15 K): 1.8489·10^−7
xcal van’t Hoff equation (buffer pH 2.0, 293.15 K): 1.8386·10^−7
xcal modified Apelblat equation (buffer pH 2.0, 298.15 K): 2.2301·10^−7
xcal van’t Hoff equation (buffer pH 2.0, 298.15 K): 2.2353·10^−7
xcal modified Apelblat equation (buffer pH 2.0, 303.15 K): 2.6872·10^−7
xcal van’t Hoff equation (buffer pH 2.0, 303.15 K): 2.7002·10^−7
xcal modified Apelblat equation (buffer pH 2.0, 308.15 K): 3.2354·10^−7
xcal van’t Hoff equation (buffer pH 2.0, 308.15 K): 3.2418·10^−7
xcal modified Apelblat equation (buffer pH 2.0, 313.15 K): 3.8914·10^−7
xcal van’t Hoff equation (buffer pH 2.0, 313.15 K): 3.8694·10^−7
xcal modified Apelblat equation (buffer pH 7.4, 293.15 K): 1.1915·10^−7
xcal van’t Hoff equation (buffer pH 7.4, 293.15 K): 1.1936·10^−7
xcal modified Apelblat equation (buffer pH 7.4, 298.15 K): 1.4708·10^−7
xcal van’t Hoff equation (buffer pH 7.4, 298.15 K): 1.4693·10^−7
xcal modified Apelblat equation (buffer pH 7.4, 303.15 K): 1.7998·10^−7
xcal van’t Hoff equation (buffer pH 7.4, 303.15 K): 1.7964·10^−7
xcal modified Apelblat equation (buffer pH 7.4, 308.15 K): 2.1840·10^−7
xcal van’t Hoff equation (buffer pH 7.4, 308.15 K): 2.1821·10^−7
xcal modified Apelblat equation (buffer pH 7.4, 313.15 K): 2.6294·10^−7
xcal van’t Hoff equation (buffer pH 7.4, 313.15 K): 2.6341·10^−7
xcal modified Apelblat equation (ethanol, 293.15 K): 0.9240·10^−2
xcal van’t Hoff equation (ethanol, 293.15 K): 0.9213·10^−2
xcal modified Apelblat equation (ethanol, 298.15 K): 1.1326·10^−2
xcal van’t Hoff equation (ethanol, 298.15 K): 1.1348·10^−2
xcal modified Apelblat equation (ethanol, 303.15 K): 1.3835·10^−2
xcal van’t Hoff equation (ethanol, 303.15 K): 1.3883·10^−2
xcal modified Apelblat equation (ethanol, 308.15 K): 1.6844·10^−2
xcal van’t Hoff equation (ethanol, 308.15 K): 1.6873·10^−2
xcal modified Apelblat equation (ethanol, 313.15 K): 2.0441·10^−2
xcal van’t Hoff equation (ethanol, 313.15 K): 2.0379·10^−2
xcal modified Apelblat equation (hexane, 293.15 K): 5.5187·10^−5
xcal van’t Hoff equation (hexane, 293.15 K): 5.5171·10^−5
xcal modified Apelblat equation (hexane, 298.15 K): 7.0549·10^−5
xcal van’t Hoff equation (hexane, 298.15 K): 7.0584·10^−5
xcal modified Apelblat equation (hexane, 303.15 K): 8.9506·10^−5
xcal van’t Hoff equation (hexane, 303.15 K): 8.9572·10^−5
xcal modified Apelblat equation (hexane, 308.15 K): 11.274·10^−5
xcal van’t Hoff equation (hexane, 308.15 K): 11.279·10^−5
xcal modified Apelblat equation (hexane, 313.15 K): 14.103·10^−5
xcal van’t Hoff equation (hexane, 313.15 K): 14.099·10^−5
SMILES: C[C@@H](c1nc(-c2ccc(C#N)cc2)cs1)[C@](O)(Cn1cncn1)c1cc(F)ccc1F [IVZ, Isavuconazole]
